Legend:
ASGPR = target: T1, ASGPR (Homo sapiens, UniProt P07306); conditions: cited from earlier work
T1 sequence (P07306 1-291): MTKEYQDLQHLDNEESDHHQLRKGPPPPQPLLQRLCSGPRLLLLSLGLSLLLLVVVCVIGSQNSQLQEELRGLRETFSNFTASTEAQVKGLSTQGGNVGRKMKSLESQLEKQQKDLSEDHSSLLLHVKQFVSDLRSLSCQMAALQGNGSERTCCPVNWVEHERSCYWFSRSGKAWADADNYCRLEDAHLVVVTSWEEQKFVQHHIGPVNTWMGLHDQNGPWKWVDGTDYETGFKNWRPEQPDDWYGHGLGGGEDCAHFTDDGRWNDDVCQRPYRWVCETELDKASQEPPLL

[1] = system: severe acetaminophen poisoning; experiment: Gal-D4-NAC treatment in mouse model of severe acetaminophen poisoning; assay type: in vivo, C57BL6 mice
Procedure: A model of severe acetaminophen poisoning was established through the administration of 700 mg/kg APAP i.p. to C57BL6 mice (FIG. 12A). There was a high mortality rate, with >90% of mice given APAP overdose dying with 72 hours regardless of treatment with free NAC (FIG. 12B). FIG. 12B represents the survival of healthy sham (black) and saline (red), free NAC (green), and Gal-D4-NAC (blue) treated animals as determined by mass reduction below 80% of the initial animal mass. This model replicates the effects of APAP overdose that result in fulminant liver failure and are considered untreatable with the current clinical NAC regiment. Additionally, to mimic delayed treatment due to late arrival at the hospital, animals eight hours after APAP overdose were also treated as opposed to the pre- and co-treatments with nanoparticles that are typically reported in this model. Both dendrimer and free drug treated animals received 100 mg/kg of NAC, which is […] of the dose that would be administered over 24 hours by i.v. infusion in the clinic.
Next liver necrosis and function were assessed through analysis of images from liver sections isolated at time of death and stained for hematoxylin and eosin. […] After receiving an overdose of APAP, liver structure is essentially destroyed. […]

Structure (SMILES)	monovalent binding affinity to ASGPR (ASGPR)	mice dying ([1]; 700 mg/kg APAP i.p., 72 hours) [%]	liver architecture / liver health ([1]; single i.v. dose 100 mg/kg on a NAC basis)
CC(=O)N[C@H]1C(O)O[C@H](CO)[C@H](O)[C@@H]1O (stereo partly drawn) [N-acetylgalactosamine (GalNAc), N-acetylgalactosamine]	micromolar scale		
CC(=O)N[C@@H](CS)C(=O)O [free NAC, N-acetyl cysteine]		> 90	unable to have any effect on liver health

Source: US20230338554A1, “GALACTOSYLATED DENDRIMERS FOR TARGETED INTRACELLULAR DELIVERY TO HEPATOCYTES” (The Johns Hopkins University, priority 2020, published 2023)
